Where a SMILES comes first, the peptide text is derived from it.
How the values were obtained:
[1] = Cytotoxicity test (CCK8 cell viability); assay type: cell-based; conditions: CHO-K1 cells, FIG. 5, molar ratio 20/1 and 40/1, siRNA 50 nM, read-out: cell survival rate
Description: CHO-K1 cells were seeded at 5,000-8,000 cells/well in clear, flat-bottomed, 96-well plates in triplicate and grown for 24 h at 37° C. with 5% CO2. The complexes or control samples were added to the cells in 150 μl of standard media and the cells were incubated for 48 h. The CCK8 assay was used to determine cell viability, according to the manufacturer's instructions. Briefly, […] of CCK8 stock was added to each well and incubated for 2 h at 37° C. in 5% CO2. Then, the cultures were removed from the incubator and the absorbance at 570 nm was read on a plate reader (FLUOstar OPTIMA, BMG, Germany). The background absorbance of the multiwell plates at 690 nm was determined and subtracted from the 570 nm measurement. The results obtained from triplicate wells were averaged and normalized using the value obtained for non-treated cells.

[2] = Cell absorption test; assay type: cell-based
[3] = reported in WO2013/075244 A1; cited from earlier work
[4] = reported in WO2013/075244 A1; cited from earlier work; remark: listed apart in the source

Work on `CC(=O)NCC(=O)N[C@@H](CC(C)C)C(=O)N[C@@H](Cc1c[nH]c2ccccc12)C(=O)N[C@@H](Cc1c[nH]cn1)C(=O)N[C@@H](C)C(=O)N[C@@H](Cc1c[nH]c2ccccc12)C(=O)N[C@@H](CC(C)C)C(=O)N[C@@H](Cc1c[nH]c2ccccc12)C(=O)N[C@@H](Cc1c[nH]cn1)C(=O)N[C@@H](C)C(=O)N[C@@H](Cc1ccccc1)C(=O)N[C@@H](CC(C)C)C(=O)N[C@@H](C)C(=O)N[C@@H](CO)C(=O)N[C@@H](Cc1c[nH]cn1)C(=O)N[C@@H](CCCNC(=N)N)C(=O)N[C@@H](CC(C)C)C(=O)N[C@@H](CC(C)C)C(=O)N[C@@H](CCCNC(=N)N)C(=O)N[C@@H](CC(C)C)C(=O)N[C@@H](CC(C)C)C(=O)N[C@@H](CCCNC(=N)N)C(N)=O` [GL5, CH3CONH-GLWHAWLWHAFLASHR LLRLLR-CONH2] (Ac-GLWHAWLWHAFLASHRLLRLLR-NH2) yielded a viability at 48 h [1] of about 105%.

For “CH3(CH2)16CONH-HHHHHHHHHHHHHHHHRRRRRRRR-CONH2 (stearyl-HHHHHHHHHHHHHHHHRRRRRRRR-NH2) [STR-HR]”, the “absorption efficiency compared with lipid 2000” value [2] was “higher than that of lipid 2000”.

In the case of “GLWRAWLWKAFLASNWRRLLRLLR (Synthetic sequence - peptide GL1)”, the “siRNA delivery (uptake) efficiency” value [3] is listed as “about 95%” and the gene silencing efficiency [4] is listed as “about 50%”.
